Measured values as given in patent publication US20050032873A1, “3-Amino chroman and 2-amino tetralin derivatives” (Wyeth, priority 2003, published 2005).
Counter-ions that a name gives are not always drawn.

SMILES | melting point
COC(=O)c1ccc(F)c2c1CC(NCCCCc1c[nH]c3ccc(F)cc13)CO2 (centres unmarked) (as salt: hydrochloride) [Compound 57, Methyl 8-fluoro-3-{[4-(5-fluoro-1H-indol-3-yl)butyl]amino}chromane-5-carboxylate] | 228 °C (dec.)
COC(=O)c1ccc(F)c2c1C[C@H](NCCCCc1c[nH]c3ccc(F)cc13)CO2 (as salt: hydrochloride) [Compound 57a, Methyl (3S)-8-fluoro-3-{[4-(5-fluoro-1H-indol-3-yl)butyl]amino}chromane-5-carboxylate] | 240 °C (dec.)
COC(=O)c1ccc(F)c2c1C[C@@H](NCCCCc1c[nH]c3ccc(F)cc13)CO2 (as salt: hydrochloride) [Compound 57b, methyl (3R)-8-fluoro-3-{[4-(5-fluoro-1H-indol-3-yl)butyl]amino}chromane-5-carboxylate] | 240 °C (dec.)
COC(=O)c1ccc(F)c2c1CC(N(CCCCc1c[nH]c3ccc(F)cc13)C1CCC1)CO2 (centres unmarked) (as salt: hydrochloride) [Compound 58, Methyl 3-{cyclobutyl[4-(5-fluoro-1H-indol-3-yl)butyl]amino}-8-fluorochromane-5-carboxylate] | 115 °C (dec.)
COC(=O)c1ccc(F)c2c1C[C@H](N(CCCCc1c[nH]c3ccc(F)cc13)C1CCC1)CO2 (as salt: hydrochloride) [Compound 58a, Methyl (3S)-3-{cyclobutyl[4-(5-fluoro-1H-indol-3-yl)butyl]amino}-8-fluorochromane-5-carboxylate] | 209 °C (dec.)
COC(=O)c1ccc(F)c2c1C[C@@H](N(CCCCc1c[nH]c3ccc(F)cc13)C1CCC1)CO2 (as salt: hydrochloride) [Compound 58b, Methyl (3R)-3-{cyclobutyl[4-(5-fluoro-1H-indol-3-yl)butyl]amino}-8-fluorochromane-5-carboxylate] | 209 °C (dec.)
CNC(=O)c1ccc(F)c2c1CC(N(CCCc1c[nH]c3ccc(F)cc13)C1CCC1)CO2 (centres unmarked) (as salt: hydrochloride) [Compound 59, 3-{cyclobutyl[3-(5-fluoro-1H-indol-3-yl)propyl]amino}-8-fluoro-N-methylchromane-5-carboxamide] | 132 °C (dec.)
CCNC(=O)c1ccc(F)c2c1CC(N(CCCc1c[nH]c3ccc(F)cc13)C1CCC1)CO2 (centres unmarked) (as salt: hydrochloride) [Compound 60, 3-{cyclobutyl[3-(5-fluoro-1H-indol-3-yl)propyl]amino}-N-ethyl-8-fluorochromane-5-carboxamide] | 130 °C (dec.)
CCCNC(=O)c1ccc(F)c2c1CC(N(CCCc1c[nH]c3ccc(F)cc13)C1CCC1)CO2 (centres unmarked) (as salt: hydrochloride) [Compound 61, 3-{cyclobutyl[3-(5-fluoro-1H-indol-3-yl)propyl]amino}-8-fluoro-N-propylchromane-5-carboxamide] | 67 °C (dec.)
CCCCNC(=O)c1ccc(F)c2c1CC(N(CCCc1c[nH]c3ccc(F)cc13)C1CCC1)CO2 (centres unmarked) (as salt: hydrochloride) [Compound 62, N-butyl-3-{cyclobutyl[3-(5-fluoro-1H-indol-3-yl)propyl]amino}-8-fluorochromane-5-carboxamide] | 106 °C (dec.)
CC(C)NC(=O)c1ccc(F)c2c1CC(N(CCCc1c[nH]c3ccc(F)cc13)C1CCC1)CO2 (centres unmarked) (as salt: hydrochloride) [Compound 63, 3-{cyclobutyl[3-(5-fluoro-1H-indol-3-yl)propyl]amino}-8-fluoro-N-isopropylchromane-5-carboxamide] | 127 °C (dec.)
O=C(NC1CC1)c1ccc(F)c2c1CC(N(CCCc1c[nH]c3ccc(F)cc13)C1CCC1)CO2 (centres unmarked) (as salt: hydrochloride) [Compound 64, 3-{cyclobutyl[3-(5-fluoro-1H-indol-3-yl)propyl]amino}-N-cyclopropyl-8-fluorochromane-5-carboxamide] | 134 °C (dec.)
O=C(NC1CCC1)c1ccc(F)c2c1CC(N(CCCc1c[nH]c3ccc(F)cc13)C1CCC1)CO2 (centres unmarked) (as salt: hydrochloride) [Compound 65, N-cyclobutyl-3-{cyclobutyl[3-(5-fluoro-1H-indol-3-yl)propyl]amino}-8-fluorochromane-5-carboxamide] | 135 °C (dec.)
O=C(NC1CCCC1)c1ccc(F)c2c1CC(N(CCCc1c[nH]c3ccc(F)cc13)C1CCC1)CO2 (centres unmarked) (as salt: hydrochloride) [Compound 66, 3-{cyclobutyl[3-(5-fluoro-1H-indol-3-yl)propyl]amino}-N-cyclopentyl-8-fluorochromane-5-carboxamide] | 133 °C (dec.)
O=C(NC1CCCCC1)c1ccc(F)c2c1CC(N(CCCc1c[nH]c3ccc(F)cc13)C1CCC1)CO2 (centres unmarked) (as salt: hydrochloride) [Compound 67, 3-{cyclobutyl[3-(5-fluoro-1H-indol-3-yl)propyl]amino}-N-cyclohexyl-8-fluorochromane-5-carboxamide] | 134 °C (dec.)
O=C(NCC1CC1)c1ccc(F)c2c1CC(N(CCCc1c[nH]c3ccc(F)cc13)C1CCC1)CO2 (centres unmarked) (as salt: hydrochloride) [Compound 68, 3-{cyclobutyl[3-(5-fluoro-1H-indol-3-yl)propyl]amino}-N-(cyclopropylmethyl)-8-fluorochromane-5-carboxamide] | 114 °C (dec.)

SMILES | melting point
O=C(NCc1ccccc1)c1ccc(F)c2c1CC(N(CCCc1c[nH]c3ccc(F)cc13)C1CCC1)CO2 (centres unmarked) (as salt: hydrochloride) [Compound 69, N-benzyl-3-{cyclobutyl[3-(5-fluoro-1H-indol-3-yl)propyl]amino}-8-fluorochromane-5-carboxamide] | 124 °C (dec.)
O=C(Nc1ccccc1)c1ccc(F)c2c1CC(N(CCCc1c[nH]c3ccc(F)cc13)C1CCC1)CO2 (centres unmarked) (as salt: hydrochloride) [Compound 70, 3-{cyclobutyl[3-(5-fluoro-1H-indol-3-yl)propyl]amino}-8-fluoro-N-phenylchromane-5-carboxamide] | 136 °C (dec.)
CCCCCN(CCCc1c[nH]c2ccc(F)cc12)C1COc2c(F)ccc(C(N)=O)c2C1 (centres unmarked) (as salt: hydrochloride) [Compound 71, 8-fluoro-3-[[3-(5-fluoro-1H-indol-3-yl)propyl](pentyl)amino]chromane-5-carboxamide] | 128 °C (dec.)
CCCCN(CCCc1c[nH]c2ccc(F)cc12)C1COc2c(F)ccc(C(N)=O)c2C1 (centres unmarked) (as salt: hydrochloride) [Compound 72, 3-{butyl[3-(5-fluoro-1H-indol-3-yl)propyl]amino}-8-fluorochromane-5-carboxamide] | 126 °C (dec.)
CN(C)C(=O)c1ccc(F)c2c1CC(N(CCCc1c[nH]c3ccc(F)cc13)C1CCC1)CO2 (centres unmarked) (as salt: hydrochloride) [Compound 73, 3-{cyclobutyl[3-(5-fluoro-1H-indol-3-yl)propyl]amino}-8-fluoro-N,N-dimethylchromane-5-carboxamide] | 126 °C (dec.)
NC(=O)c1ccc(F)c2c1CC(N(CCCc1c[nH]c3ccc(F)cc13)Cc1ccccc1)CO2 (centres unmarked) (as salt: hydrochloride) [Compound 74, 3-{benzyl[3-(5-fluoro-1H-indol-3-yl)propyl]amino}-8-fluorochromane-5-carboxamide] | 142 to 150 °C (dec.)
NC(=O)c1ccc(F)c2c1CC(NCCc1c[nH]c3ccc(F)cc13)CO2 (centres unmarked) (as salt: hydrochloride) [Compound 75, 8-fluoro-3-{[2-(5-fluoro-1H-indol-3-yl)ethyl]amino}chromane-5-carboxamide] | 134 °C (dec.)
CCN(CCc1c[nH]c2ccc(F)cc12)C1COc2c(F)ccc(C(N)=O)c2C1 (centres unmarked) (as salt: hydrochloride) [Compound 76, 3-{ethyl[2-(5-fluoro-1H-indol-3-yl)ethyl]amino}-8-fluorochromane-5-carboxamide] | 127 °C (dec.)
CCCN(CCc1c[nH]c2ccc(F)cc12)C1COc2c(F)ccc(C(N)=O)c2C1 (centres unmarked) (as salt: hydrochloride) [Compound 77, 8-fluoro-3-[[2-(5-fluoro-1H-indol-3-yl)ethyl](propyl)amino]chromane-5-carboxamide] | 125 °C (dec.)
NC(=O)c1ccc(F)c2c1CC(N(CCc1c[nH]c3ccc(F)cc13)CC1CC1)CO2 (centres unmarked) (as salt: hydrochloride) [Compound 78, 3-{(cyclopropylmethyl)[2-(5-fluoro-1H-indol-3-yl)ethyl]amino}-8-fluorochromane-5-carboxamide] | 132 °C (dec.)
NC(=O)c1ccc(F)c2c1CC(NCCCCc1c[nH]c3ccc(F)cc13)CO2 (centres unmarked) (as salt: hydrochloride) [Compound 79, 8-fluoro-3-{[4-(5-fluoro-1H-indol-3-yl)butyl]amino}chromane-5-carboxamide] | 52 °C (dec.)
CCN(CCCCc1c[nH]c2ccc(F)cc12)C1COc2c(F)ccc(C(N)=O)c2C1 (centres unmarked) (as salt: hydrochloride) [Compound 80, 3-{ethyl[4-(5-fluoro-1H-indol-3-yl)butyl]amino}-8-fluorochromane-5-carboxamide] | 110 °C (dec.)
CCCN(CCCCc1c[nH]c2ccc(F)cc12)C1COc2c(F)ccc(C(N)=O)c2C1 (centres unmarked) (as salt: hydrochloride) [Compound 81, 8-fluoro-3-[[4-(5-fluoro-1H-indol-3-yl)butyl](propyl)amino]chromane-5-carboxamide] | 115 °C (dec.)
NC(=O)c1ccc(F)c2c1CC(N(CCCCc1c[nH]c3ccc(F)cc13)C1CCC1)CO2 (centres unmarked) (as salt: hydrochloride) [Compound 83, 3-{cyclobutyl[4-(5-fluoro-1H-indol-3-yl)butyl]amino}-8-fluorochromane-5-carboxamide] | 122 °C (dec.)
NC(=O)c1ccc(F)c2c1C[C@@H](N(CCCCc1c[nH]c3ccc(F)cc13)C1CCC1)CO2 (as salt: hydrochloride) [Compound 83a, (3R)-3-{cyclobutyl[4-(5-fluoro-1H-indol-3-yl)butyl]amino}-8-fluorochromane-5-carboxamide] | 128 °C (dec.)
NC(=O)c1ccc(F)c2c1C[C@H](N(CCCCc1c[nH]c3ccc(F)cc13)C1CCC1)CO2 (as salt: hydrochloride) [Compound 83b, (3S)-3-{cyclobutyl[4-(5-fluoro-1H-indol-3-yl)butyl]amino}-8-fluorochromane-5-carboxamide] | 128 °C (dec.)
